This is an account of results in PubChem BioAssay AID1996.

In general, kinetic solubility refers to solubility judged after dilution from a stock solution rather than from solid.

Values after ≈ are worked out from the molar mass of the structure shown.

The conditions of this data set: buffer; pH 7.4; 200.0 µM.
`CC1CCCC(NC(=O)COC(=O)c2cc(=O)[nH]c3ccccc23)C1C` (centres undefined) yielded a solubility (kinetic) of 4.6 µg/mL (≈ 12.9 µM).
The result for `Cc1ccc(NC(=O)CN(C)C(=O)c2ccc(NS(=O)(=O)c3cccc([N+](=O)[O-])c3)cc2)cc1` reads 11.6 µg/mL (≈ 24 µM); that for `COc1ccc(CC(=O)NC2CCSc3ccccc32)cc1OC` (centres undefined), 0.7 µg/mL (≈ 2.04 µM).
The result for `COc1cc(Br)c(CC(=O)NC2CC2)cc1OC` reads greater than 47.1 µg/mL; that for `O=C(Nc1ccc2c(c1)OCCO2)C1CC(c2ccc(F)cc2)=NO1` (centres undefined), 1.2 µg/mL (≈ 3.51 µM).
The figure for `Cc1cc(=O)oc2cc(NC(=O)C3CCCC3)ccc12` is 3 µg/mL (≈ 11.1 µM); for `O=C(CCN1C(=O)c2ccccc2C1=O)CN1CCOCC1` it is 36.5 µg/mL (≈ 121 µM); for `Cn1cccc1C1CCCN1CC(=O)Nc1ccc(F)c(F)c1F` (centres undefined) it is greater than 50.6 µg/mL.
The molecule `CC1CCCC(C)N1C(=O)COC(=O)CN1C(=O)c2ccccc2C1=O` (centres undefined) displayed a kinetic solubility greater than 53.8 µg/mL.
The result for `CCCC(=O)Nc1ccc(NCc2ccc(C)s2)cc1` reads greater than 43.3 µg/mL; that for `CCOc1ccc(-c2nc(CCl)cs2)cc1OC.Cl`, 27.2 µg/mL; that for `OCCNc1cc(Cl)ncn1`, greater than 26 µg/mL.
The figure for `CC(=O)c1cn(CC(=O)Nc2ccc(C)c(C)c2)c2ccccc12` is less than 0.3 µg/mL; for `COc1cscc1C(N)=O` it is 19.4 µg/mL (≈ 123 µM); for `O=C(Nc1ncc(Cc2cccc([N+](=O)[O-])c2)s1)c1ccco1` it is 0.7 µg/mL (≈ 2.13 µM).
The result for `c1ccc(N2CCOCCOCCOCCOCC2)cc1` reads greater than 44.3 µg/mL; that for `CC1CCN(C(=O)c2cc3c(ccc4ccccc43)o2)CC1`, less than 0.6 µg/mL; that for `Cn1cnnc1SCC(=O)c1ccc2c(c1)NC(=O)CO2`, greater than 45.6 µg/mL.
On to `COc1ccc(-c2cc(C(=O)OCC(=O)NC3CC3)c3ccccc3n2)cc1OC`, for which the kinetic solubility was 10 µg/mL (≈ 24.6 µM).
The result for `Cc1ccc(NC(=O)COc2ccc(C(=O)c3ccccc3)cc2)c(O)c1` reads 2.8 µg/mL (≈ 7.75 µM); that for `CC(=O)c1ccc(S(=O)(=O)Nc2ccc3c(c2)OCO3)cc1`, greater than 47.9 µg/mL; that for `COc1ccc2c(c1OC)C(=O)N1C2SC[C@H]1C(=O)NC1CC1` (some centres undefined), greater than 50.2 µg/mL.
`Cc1cc(C)c(NC(=O)COC(=O)C23CC4CC(CC(O)(C4)C2)C3)c(Cl)c1`: the solubility (kinetic) was greater than 58.8 µg/mL.
On to `COc1cc(/C=C/C(=O)OCC(=O)NCCCc2ccccc2)ccc1O`, for which the kinetic solubility stood at 52.9 µg/mL (≈ 143 µM).
The figure for `O=C(Nc1sc(-c2ccccc2)cc1C(=O)O)c1ccccc1` is 45.1 µg/mL (≈ 139 µM); for `CC(O)CNC(=O)Cc1cc(=O)[nH]c(=O)[nH]1` (centres undefined) it is greater than 34.1 µg/mL; for `Cc1nc2ccccc2n1Cc1ccc(Br)cc1` it is 37.8 µg/mL (≈ 126 µM).
The result for `O=C1CC(c2ccccc2)CC(O)=C1C=NCc1ccncc1` (centres undefined) reads greater than 46 µg/mL; that for `C=CCn1c(=O)c2ccccc2n2c(SCC(=O)N(C)C)nnc12`, greater than 51.5 µg/mL; that for `CCC(=O)Nc1ccccc1-c1nc2ccccc2[nH]c1=O`, greater than 44 µg/mL.
In turn, `Cc1nc2c(C)cccc2c2c1CCN2c1ccccc1F` returned a kinetic solubility of 33.3 µg/mL (≈ 114 µM).
The result for `CCOc1ccccc1C(=O)NCC(=O)NCC1CCCCC1` reads 5.6 µg/mL (≈ 17.6 µM); that for `CC1=NOC(=O)/C1=C/c1ccc(O)c(Cl)c1`, greater than 35.6 µg/mL; that for `CC1Cc2ccccc2N1C(=O)COC(=O)c1ccc(Cl)nc1` (centres undefined), 11.1 µg/mL (≈ 33.6 µM).
The result for `CCn1c(O)c(C=NCCN2CCOCC2)c(=O)n(CC)c1=S` reads greater than 51.1 µg/mL; that for `Fc1ccc(NC(=S)Nc2cccnc2)c(Cl)c1`, greater than 42.3 µg/mL.
The result for `Cc1ccsc1C(=O)OCC(=O)N(Cc1ccccc1)C(C)C` reads 40.2 µg/mL (≈ 121 µM); that for `Cc1ccsc1C(=O)N(C)C1CCS(=O)(=O)C1` (centres undefined), greater than 41 µg/mL.
As to `CC(C)OCCCNC(=O)CN1C(=O)c2cccc3cccc1c23`, the solubility (kinetic) was greater than 49 µg/mL.
The result for `CC1CCN(C(=O)COC(=O)CCc2c[nH]c3ccccc23)CC1` reads 9 µg/mL (≈ 27.4 µM); that for `CC(NCc1ccc2c(c1)OCO2)c1ccccc1.Cl` (centres undefined), 41 µg/mL; that for `CC1CC(=O)C2=C(C1)Nc1nc3ccccc3n1C2c1cccnc1` (centres undefined), 3.3 µg/mL (≈ 9.99 µM).
The figure for `CN1/C(=C/C(=O)C2CC2)C(C)(C)c2ccccc21` is 8.3 µg/mL (≈ 34.4 µM); for `CCOC(=O)C1CCCN(C(=S)Nc2ccc(S(=O)(=O)N3CCOCC3)cc2)C1` (centres undefined) it is greater than 66.2 µg/mL; for `C=CCc1cccc2cc(C(=O)N3CCOCC3)c(=O)oc12` it is 42.8 µg/mL (≈ 143 µM).
With `O=C(NC1CCCC1)c1cc(-c2ccc(Cl)cc2)on1`, the kinetic solubility is less than 0.3 µg/mL.
In the case of `CNC(=S)Nc1cc(C(=O)N2CCCC2)ccc1N1CCCC1`, the kinetic solubility was greater than 49.9 µg/mL.
The figure for `COc1cc(/C=C/C(=O)OCC(=O)NCCc2ccc(F)cc2)ccc1OC(F)F` is 4 µg/mL (≈ 9.45 µM); for `CC12CC3(C)CC(C)(C1)CC(C(N)=O)(C2)C3` it is 31 µg/mL (≈ 140 µM); for `N#Cc1cccc(NC(=O)CC2CCCC2)c1` it is 33.1 µg/mL (≈ 145 µM).
With `N#CC1=C(N)Oc2c(ccc3cccnc23)C1c1ccccc1` (centres undefined), the solubility (kinetic) came to 9.8 µg/mL (≈ 32.7 µM).
Molecule `COc1ccc(S(=O)(=O)N2CCCCC2)cc1NC(=O)COC(=O)c1ccco1` yielded a solubility (kinetic) of 5.8 µg/mL (≈ 13.7 µM).
Molecule `Cc1ccsc1/C=C1/SC(=O)N(CC(=O)N2CCCC2)C1=O` showed a kinetic solubility of 5.9 µg/mL (≈ 17.5 µM).
The figure for `CN(C)CCCN1c2ccccc2Sc2ccccc21.Cl` is greater than 48.1 µg/mL; for `N#Cc1cc(Nc2c(N)nc[nH]c2=O)c([N+](=O)[O-])cc1C#N` it is greater than 44.6 µg/mL; for `CCC1CCCCN1C(=O)COC(=O)c1cc(=O)[nH]c2ccccc12` (centres undefined) it is greater than 51.4 µg/mL.
The result for `CN(c1ccccc1)c1ncccn1` reads 14.2 µg/mL (≈ 76.7 µM); that for `Cc1nc(-c2ccccc2)nc2sc(C(=O)c3ccc(F)cc3)c(N)c12`, 1.5 µg/mL (≈ 4.13 µM); that for `COc1ccc(C)cc1NC(=O)Nc1ccncc1`, 4.6 µg/mL (≈ 17.9 µM).
The figure for `O=C(c1ccco1)N1CCC(N2CCN(c3ccccc3)CC2)CC1` is 43.8 µg/mL (≈ 129 µM); for `COc1ccccc1-c1nnc(SCC(=O)NC2CCCCC2)n1N` it is greater than 54.2 µg/mL; for `CN(Cc1ccccc1)C(NC(=O)c1ccco1)C(Cl)(Cl)Cl` (centres undefined) it is 28.2 µg/mL (≈ 78 µM).
Molecule `CNC(=O)COC(=O)c1cc2c(s1)CCCC2` gave a solubility (kinetic) greater than 38 µg/mL.
Molecule `CCOC(=O)C1CCC(CNCc2ccccc2C)CC1.Cl` (centres undefined) gave a kinetic solubility of 44.3 µg/mL.
The figure for `O=C(COC(=O)CSc1ccc(Cl)cc1)Nc1ccccc1` is greater than 50.4 µg/mL; for `O=C1CC2c3ccccc3C1C1C(=O)N(Cc3ccccc3)C(=O)C21` (centres undefined) it is greater than 49.7 µg/mL.
The figure for `Cc1nc2cc(NS(=O)(=O)c3cccc(F)c3)ccc2s1` is greater than 48.4 µg/mL.
The result for `O=c1[nH]cnc2c1C(c1ccccc1)c1c(nc[nH]c1=O)O2` reads greater than 44.1 µg/mL; that for `Cc1ccc(-n2c(C(C)C)nc3oc4ccccc4c(=O)c3c2=O)cc1`, 14.7 µg/mL (≈ 42.4 µM).
`CC1(/[N+]([O-])=C\c2ccccc2F)CCCCC1=O` (centres undefined): the kinetic solubility is greater than 37.4 µg/mL.
The result for `CC(=O)c1ccc(OC(=O)CN2C(=O)c3ccccc3C2=O)cc1` reads greater than 48.5 µg/mL; that for `CCc1ccc(NC(=O)CCCN2C(=S)NC(C)(C)CC2C)cc1` (centres undefined), 38.7 µg/mL (≈ 111 µM).
In turn, `CCCSc1nsc(NC(=O)c2cccnc2OCC)n1` displayed a solubility (kinetic) of 0.5 µg/mL (≈ 1.54 µM).
`COc1ccc(Nc2nccc(-c3cccc(N)c3)n2)cc1` returned a kinetic solubility of 22.5 µg/mL (≈ 77 µM).
The result for `CC(C)c1cccc(C(C)C)c1OC(=O)NC(=O)c1c(F)cccc1F` reads 17.4 µg/mL (≈ 48.1 µM); that for `COc1ccccc1OCCn1c(SCC(=O)O)nc2ccccc21`, greater than 53.8 µg/mL; that for `CN1CCCN(C(=O)CNC(=O)c2ccccc2Br)CC1`, greater than 53.1 µg/mL.
The figure for `N#C/C(=C/c1ccco1)C(N)=S` is greater than 26.7 µg/mL; for `CC1CCCN(S(=O)(=O)c2csc(C(N)=O)c2)C1` (centres undefined) it is greater than 43.3 µg/mL.
The result for `COc1cc(C=O)cc(Cl)c1OC(=O)N1CCOCC1` reads 39.5 µg/mL (≈ 132 µM).
Take `COc1cc(C)nc(-c2csc(C)n2)n1`: the kinetic solubility is 28.6 µg/mL (≈ 129 µM).
The result for `Cc1ccc(C(C)NC(=O)c2ccc3c(c2)OCO3)cc1C` (centres undefined) reads 39.4 µg/mL (≈ 133 µM); that for `C[C@](N)(Cc1ccc(O)c(O)c1)C(=O)O`, greater than 31.7 µg/mL.
The result for `Cc1ccc(C)c(CN2CCSCC2)c1` reads 2.1 µg/mL (≈ 9.49 µM).
In the case of `CCC1(c2ccc(F)cc2)NC(=O)N(CC(=O)N2CCN(C(=O)c3ccco3)CC2)C1=O` (centres undefined), the solubility (kinetic) is greater than 66.4 µg/mL.
The figure for `CCCC12CN3CCN(C1)CC(CCC)(C3)C2=O` is 30.9 µg/mL (≈ 123 µM).
The figure for `COC(=O)c1ccccc1NC(=O)COC(=O)[C@H](C)NC(N)=O` is greater than 48.5 µg/mL.
Turning to `N#Cc1ccc(-c2cccnc2)nc1SCC(N)=O`, the kinetic solubility amounted to 38.2 µg/mL (≈ 141 µM).
The figure for `COC(=O)c1ccc(Oc2nc(NC(C)C)nc(NC(C)C)n2)cc1` is 1.4 µg/mL (≈ 4.05 µM); for `CCN(CC(=O)NCc1ccc(Cl)cc1)C(=O)c1sccc1C` it is greater than 52.6 µg/mL; for `OCCNc1nc(N2CCOCC2)nc(N2CCOCC2)n1` it is 44.7 µg/mL (≈ 144 µM).
`Cn1c(=O)c2c(nc(SCc3ccc(F)cc3)n2C)n(C)c1=O` yielded a kinetic solubility of 2 µg/mL (≈ 5.98 µM).
Consider `CCOc1ccc(NC(=O)COC(=O)c2cc(C)oc2C)cc1`, for which the kinetic solubility worked out at 4.2 µg/mL (≈ 13.2 µM).
The result for `CSC1=NC2(C)CCCCC2C12C=CC(=O)C=C2` (centres undefined) reads greater than 39.2 µg/mL; that for `COc1ccc(NS(=O)(=O)c2ccc3c(c2)CCO3)cc1`, 45 µg/mL (≈ 147 µM); that for `Cc1[nH]ccc(=O)c1Cc1c(Cl)cccc1Cl`, greater than 40.2 µg/mL.
The result for `O=C(NC1CC1)c1cc2cc3ccccc3nc2s1` reads 0.9 µg/mL (≈ 3.35 µM); that for `CN(C)CCCC1Sc2ccccc2Sc2ccccc21.O=C(O)C(=O)O` (centres undefined), greater than 60.8 µg/mL; that for `COCCCN1CN=C(NS(=O)(=O)c2ccc(C)cc2)NC1`, greater than 49 µg/mL.
Turning to `COc1ccc(C(C)C)cc1S(=O)(=O)NC1CCCC1`, the solubility (kinetic) came out at 3 µg/mL (≈ 10.1 µM).
The result for `O=C(Nc1nc(-c2ccc(Br)cc2)cs1)c1cccnc1` reads less than 0.3 µg/mL.
The result for `CC(c1ccccc1)n1c(Br)nc2c1c(=O)[nH]c(=O)n2C` (centres undefined) reads 11.2 µg/mL (≈ 32.1 µM); that for `CCC1Oc2ccccc2N(CC(=O)NC2CC2)C1=O` (centres undefined), greater than 41.1 µg/mL.
The result for `CN(C)c1ccc(NC(=O)CN2C(=O)c3ccccc3C2=O)cc1` reads 11.3 µg/mL (≈ 34.9 µM).
